# Laboratory results reported in PubChem BioAssay (NCI).
# “And” between values parts separate entries of the source, which are not always exact repeats. Identical values can stand only once.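 These data come from cells grown in 96-well plates and exposed to compound for 48 hours at five concentrations. Here, GI50 denotes the concentration required for 50% inhibition of growth. The concentration for full growth arrest is given as TGI.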
# System: TK-10 renal
# Experiment: NCI tumour cell line growth inhibition, 48 h
SMILES,GI50,TGI
O=C1CCCCN1CCCCC#Cc1ccccc1C#Cc1ccc([N+](=O)[O-])cc1,7.72 µM,30.5 µM
CCOc1cc2c(Cl)ncnc2c(OCC)c1OCC,26.9 µM,> 76.2 µM
Oc1ccc2ccccc2c1N=Nc1nccs1,8.28 µM,22.2 µM
CC(=O)OCCN1c2ccccc2Sc2cnccc21,–,> 10 µM
CC(C)(CC(=O)Nc1ccccc1)C(=O)O,–,> 100 µM
Cn1c(=O)c2[nH]c(SCc3ccccn3)nc2n(C)c1=S,–,> 100 µM
COc1cc2c(c(O)c1Br)C(=O)c1c(O)cc(C[C@H](C)O)cc1[C@H]2[C@H]1c2cc(C[C@H](C)O)cc(O)c2C(=O)c2c1cc(OC)c(Br)c2O,13.8 µM and 31.4 µM,67.5 µM and > 100 µM
COc1ccc(-c2cc(=O)c3ccc(O)cc3o2)cc1OC,–,> 100 µM
CC[C@]1(O)C[C@@H]2CN(CCc3c([nH]c4ccccc34)[C@@](C(=O)OC)(c3cc4c(cc3OC)N(C)[C@H]3[C@@](O)(C(=O)OC)[C@H](OC(C)=O)[C@]5(CC)C=CCN6CC[C@]43[C@@H]65)C2)C1,6.02 µM,26.9 µM
N#CSc1c[nH]c2cccc(/C=C/C(=O)/C=C(/C=C/c3cccc4[nH]cc(SC#N)c34)OB(F)F)c12,0.961 µM,5.94 µM

# System: MOLT-4 leukemia
# Experiment: NCI tumour cell line growth inhibition, 48 h
SMILES,GI50,TGI
CN1CCN(C(=O)OCc2nc3c(N4CCOCC4)nc(Cl)nc3n2C)CC1,1.19 µM,4.69 µM
COC(=O)[C@]12CC[C@@H](C)[C@H](C)[C@@H]1C1=CC[C@@H]3[C@@]4(C)C/C(=N\O)[C@H](O)[C@@]5(C)COC(=C45)C[C@@]3(C)[C@]1(C)CC2,2.97 µM,10.8 µM
Oc1c(CN2CCC(N3CCCCC3)CC2)cc(Cc2cc(CN3CCC(N4CCCCC4)CC3)c(O)c3ncccc23)c2cccnc12,0.3 µM,6.22 µM
C[C@@H]1OC(O)[C@@H](F)[C@H](O)[C@@H]1O (some centres undefined),> 100 µM,> 100 µM
NC(=O)c1ccc(I)c(N)c1,> 100 µM,> 100 µM
CC/C(=C(/c1ccc(O)cc1)c1ccc(OCCNC)cc1)c1ccccc1,2.46 µM,7.14 µM
O=C(/C(Br)=C/c1ccccc1)c1ccccc1,2.23 µM,6.95 µM
C=C1C(=O)O[C@H]2[C@H]1CC/C(Cn1cc(-c3ccc(OC)cc3)nn1)=C\CC[C@@]1(C)O[C@@H]21,1.13 µM,3.66 µM
O=C1CCCCN1CCCCC#Cc1ccccc1C#Cc1ccc([N+](=O)[O-])cc1,2.79 µM,9.22 µM
CCOc1cc2c(Cl)ncnc2c(OCC)c1OCC,2.87 µM,10.4 µM
Oc1ccc2ccccc2c1N=Nc1nccs1,0.186 µM,> 46.9 µM
CC(=O)OCCN1c2ccccc2Sc2cnccc21,–,> 10 µM
CC(C)(CC(=O)Nc1ccccc1)C(=O)O,–,> 100 µM
Cn1c(=O)c2[nH]c(SCc3ccccn3)nc2n(C)c1=S,–,> 100 µM
COc1cc2c(c(O)c1Br)C(=O)c1c(O)cc(C[C@H](C)O)cc1[C@H]2[C@H]1c2cc(C[C@H](C)O)cc(O)c2C(=O)c2c1cc(OC)c(Br)c2O,3.54 µM and 6.39 µM,67.5 µM and > 100 µM
COc1ccc(-c2cc(=O)c3ccc(O)cc3o2)cc1OC,–,> 100 µM
CC[C@]1(O)C[C@@H]2CN(CCc3c([nH]c4ccccc34)[C@@](C(=O)OC)(c3cc4c(cc3OC)N(C)[C@H]3[C@@](O)(C(=O)OC)[C@H](OC(C)=O)[C@]5(CC)C=CCN6CC[C@]43[C@@H]65)C2)C1,< 0.01 µM,21.3 µM
N#CSc1c[nH]c2cccc(/C=C/C(=O)/C=C(/C=C/c3cccc4[nH]cc(SC#N)c34)OB(F)F)c12,0.302 µM,3.14 µM
N#Cc1ccc(O)c(C2=NCC(c3cccc(Oc4ccccc4)c3)O2)c1 (centres undefined),1.67 µM,> 100 µM

# System: CAKI-1 renal
# Experiment: NCI tumour cell line growth inhibition, 48 h
SMILES,GI50,TGI
CN1CCN(C(=O)OCc2nc3c(N4CCOCC4)nc(Cl)nc3n2C)CC1,1.03 µM,2.31 µM
COC(=O)[C@]12CC[C@@H](C)[C@H](C)[C@@H]1C1=CC[C@@H]3[C@@]4(C)C/C(=N\O)[C@H](O)[C@@]5(C)COC(=C45)C[C@@]3(C)[C@]1(C)CC2,11.2 µM,24.7 µM
Oc1c(CN2CCC(N3CCCCC3)CC2)cc(Cc2cc(CN3CCC(N4CCCCC4)CC3)c(O)c3ncccc23)c2cccnc12,0.941 µM,10.2 µM
C[C@@H]1OC(O)[C@@H](F)[C@H](O)[C@@H]1O (some centres undefined),> 100 µM,> 100 µM
NC(=O)c1ccc(I)c(N)c1,> 100 µM,> 100 µM
CC/C(=C(/c1ccc(O)cc1)c1ccc(OCCNC)cc1)c1ccccc1,2.75 µM,8.58 µM
O=C(/C(Br)=C/c1ccccc1)c1ccccc1,1.34 µM,3.39 µM
C=C1C(=O)O[C@H]2[C@H]1CC/C(Cn1cc(-c3ccc(OC)cc3)nn1)=C\CC[C@@]1(C)O[C@@H]21,1.03 µM,3.63 µM
O=C1CCCCN1CCCCC#Cc1ccccc1C#Cc1ccc([N+](=O)[O-])cc1,2.93 µM,15 µM
CCOc1cc2c(Cl)ncnc2c(OCC)c1OCC,1.56 µM,3.03 µM
Oc1ccc2ccccc2c1N=Nc1nccs1,0.323 µM,11.6 µM
CC(=O)OCCN1c2ccccc2Sc2cnccc21,–,> 10 µM
CC(C)(CC(=O)Nc1ccccc1)C(=O)O,–,> 100 µM
Cn1c(=O)c2[nH]c(SCc3ccccn3)nc2n(C)c1=S,–,> 100 µM
COc1cc2c(c(O)c1Br)C(=O)c1c(O)cc(C[C@H](C)O)cc1[C@H]2[C@H]1c2cc(C[C@H](C)O)cc(O)c2C(=O)c2c1cc(OC)c(Br)c2O,10.6 µM and 28.4 µM,33.3 µM and 94.6 µM
COc1ccc(-c2cc(=O)c3ccc(O)cc3o2)cc1OC,–,> 100 µM
CC[C@]1(O)C[C@@H]2CN(CCc3c([nH]c4ccccc34)[C@@](C(=O)OC)(c3cc4c(cc3OC)N(C)[C@H]3[C@@](O)(C(=O)OC)[C@H](OC(C)=O)[C@]5(CC)C=CCN6CC[C@]43[C@@H]65)C2)C1,< 0.01 µM,4.65 µM
N#CSc1c[nH]c2cccc(/C=C/C(=O)/C=C(/C=C/c3cccc4[nH]cc(SC#N)c34)OB(F)F)c12,0.887 µM,8.62 µM
N#Cc1ccc(O)c(C2=NCC(c3cccc(Oc4ccccc4)c3)O2)c1 (centres undefined),0.392 µM,37.9 µM
